Experimental findings from patent US8575320B2, “Compositions and methods for separating, characterizing and administering soluble selenoglycoproteins” (Alltech, Inc., priority 2010, dated 2013) are described below.

The subject of the test is gene expression in chicken breast muscle tissue. Nature of the test: Microarray gene expression profile in breast muscle of broilers fed different selenium sources. The note with it: P<0.05, FC>1.2 vs Control, 0.3 ppm Se diet, 18 days. It counts as in vivo. The protocol:
Breast muscle tissue from chickens referenced in Example 3 was used to assess similarities and differences in gene expression profiles elicited by the following dietary treatments: Treatment 1-basal (Control); Treatment 2-Control+0.3 ppm sodium-selenite (SS); Treatment 3-Control+0.3 ppm SEL-PLEX; Treatment 6-0.3 ppm SGP fraction extracted from SEL-PLEX (SP) at pH 4.0. […] As such, experiments were conducted during development of embodiments of the invention in order to determine if animals receiving SGP fraction pH 4.0 experienced similar in vivo effects (e.g., gene expression changes) observed in SP fed animals, or whether significant, measurable differences existed.
At 18-days of age, five chickens from each treatment group (described above and in Tables 3 and 4) were randomly selected and euthanized by argon asphyxiation, followed by cervical dislocation. Samples of breast muscle tissue (1 gram) were rapidly removed and flash frozen in liquid nitrogen. Samples were stored at −80° C. until analyzed.
Total RNA was isolated from frozen tissue using TRIZOL reagent (INVITROGEN, Carlsbad, Calif.) according to the manufacturer's protocol and purified using a RNEASY kit (QIAGEN, Valencia, Calif.). Total RNA was quantified by absorbance at 260 nm and integrity was confirmed by agarose gel electrophoresis and ethidium bromide staining of the 28S and 18S bands. […]

As for `O=[Se](O)O` [SS, sodium selenite], the “number of genes significantly changed” value is recorded as 283.
